Laboratory results: the NIST ThermoML archive (doi:10.1016/j.jct.2018.02.022)
Several values for one entry are separate records, joined by “and”; a condition that tells them apart may be missing. Equal values may be shown once. Numbers after ± are expanded uncertainties.

Experiment: xn = mol fraction of the nth substance listed
Details: 298.15 K, 92.3 kPa, Liquid; for viscosity: Concentric cylinders viscometry; for speed of sound: Frequency=3 MHz, Single path-length method; for mass density: Vibrating tube method

CCO [ethanol] + O
Details	mass density	speed of sound [m/s]	viscosity [mPa·s]
x1 = 0.0024	995.871 ± 3 kg/m3	1501.5 ± 1.8	–
x1 = 0.0201	988.31 ± 3.2 kg/m3	–	1.098 ± 0.15
x1 = 0.0202	988.159 ± 3.2 kg/m3	1532.7 ± 1.8	–
x1 = 0.0295	984.669 ± 3.2 kg/m3	1548.2 ± 1.8	–
x1 = 0.0366	982.196 ± 3.2 kg/m3	1559.6 ± 1.8	–
x1 = 0.0408	980.85 ± 3.2 kg/m3	–	1.336 ± 0.19
x1 = 0.0497	977.99 ± 3.2 kg/m3	–	1.432 ± 0.2
x1 = 0.0513	977.287 ± 3.2 kg/m3	1581.3 ± 1.8	–
x1 = 0.06	974.31 ± 3.2 kg/m3 and 974.729 ± 3.2 kg/m3	1592.1 ± 1.8	1.551 ± 0.22
x1 = 0.0707	971.631 ± 3.2 kg/m3	1603.2 ± 1.8	–
x1 = 0.0796	969.17 ± 3.2 kg/m3	–	1.748 ± 0.24
x1 = 0.0801	968.969 ± 3.2 kg/m3	1610.7 ± 1.8	–
x1 = 0.0904	966.039 ± 3.2 kg/m3	1616.4 ± 1.8	–
x1 = 0.0997	963.419 ± 3.2 kg/m3	1619 ± 1.8	–
x1 = 0.1004	961.4 ± 3.2 kg/m3	–	1.947 ± 0.27
x1 = 0.1294	954.963 ± 3.2 kg/m3	1613.3 ± 1.8	–
x1 = 0.1497	948.951 ± 3.2 kg/m3	1600.1 ± 1.8	–
x1 = 0.1499	948.9 ± 3.2 kg/m3	–	2.242 ± 0.31
x1 = 0.1984	931.84 ± 3.2 kg/m3	–	2.371 ± 0.33
x1 = 0.2008	933.41 ± 3.2 kg/m3	1553.7 ± 1.8	–
x1 = 0.2499	918.95 ± 3.2 kg/m3	–	2.429 ± 0.34
x1 = 0.2503	918.708 ± 3.2 kg/m3	1507 ± 1.8	–
x1 = 0.2998	904.858 ± 3.2 kg/m3	1464.5 ± 1.8	–
x1 = 0.3016	904.86 ± 3.2 kg/m3	–	2.339 ± 0.33
x1 = 0.3499	892.28 ± 3.2 kg/m3	–	2.263 ± 0.32
x1 = 0.3507	891.711 ± 3.2 kg/m3	1426.2 ± 1.8	–
x1 = 0.399	880.34 ± 3.2 kg/m3	–	2.17 ± 0.3
x1 = 0.3992	880.239 ± 3.2 kg/m3	1394.2 ± 1.8	–
x1 = 0.4495	869.34 ± 3.2 kg/m3	–	2.066 ± 0.29
x1 = 0.4514	869.012 ± 3.2 kg/m3	1363.9 ± 1.8	–
x1 = 0.4989	860.04 ± 3.2 kg/m3	–	1.956 ± 0.27
x1 = 0.5002	858.963 ± 3.2 kg/m3	1337.9 ± 1.8	–
x1 = 0.5494	849.801 ± 3.2 kg/m3	1314.5 ± 1.8	–
x1 = 0.5495	850.72 ± 3.2 kg/m3	–	1.88 ± 0.26
x1 = 0.6018	840.665 ± 3.2 kg/m3	1291.5 ± 1.8	–
x1 = 0.6067	840.19 ± 3.2 kg/m3	–	1.744 ± 0.24
x1 = 0.6503	832.95 ± 3.2 kg/m3 and 832.839 ± 3.2 kg/m3	1271.8 ± 1.8	1.659 ± 0.23
x1 = 0.6956	826.05 ± 3.2 kg/m3	–	1.572 ± 0.22
x1 = 0.7006	825.07 ± 3.2 kg/m3	1252.3 ± 1.8	–
x1 = 0.7355	819.907 ± 3.2 kg/m3	1239.1 ± 1.8	–
x1 = 0.75	818.03 ± 3.2 kg/m3	–	1.483 ± 0.21
x1 = 0.7843	813.49 ± 3.2 kg/m3	–	1.43 ± 0.2
x1 = 0.7965	811.475 ± 3.2 kg/m3	1217 ± 1.8	–
x1 = 0.8433	805.219 ± 3.2 kg/m3	1200.2 ± 1.8	–
x1 = 0.8475	805.63 ± 3.1 kg/m3	–	1.342 ± 0.19
x1 = 0.8864	799.93 ± 3.1 kg/m3	–	1.271 ± 0.18
x1 = 0.892	798.808 ± 3.2 kg/m3	1182.5 ± 1.8	–
x1 = 0.9093	796.615 ± 3.2 kg/m3	1176.3 ± 1.8	–
x1 = 0.9207	795.193 ± 3.1 kg/m3	1172.3 ± 1.8	–
x1 = 0.929	794.19 ± 3.1 kg/m3	–	1.204 ± 0.17
x1 = 0.9307	793.91 ± 3.1 kg/m3	1168.6 ± 1.8	–
x1 = 0.9398	792.821 ± 3.1 kg/m3	1165.4 ± 1.8	–
x1 = 0.9483	791.735 ± 3.1 kg/m3	1162.3 ± 1.8	–
x1 = 0.9603	790.291 ± 3.1 kg/m3	1158.1 ± 1.8	–
x1 = 0.9702	789.073 ± 3.1 kg/m3	1154.5 ± 1.8	–
x1 = 0.9801	787.741 ± 3.1 kg/m3	1151.3 ± 1.8	–
x1 = 0.9895	786.779 ± 3.1 kg/m3	1147.8 ± 1.8	–
x1 = 1	785.26 ± 3 kg/m3	1143.5 ± 1.8	1.091 ± 0.15
